Laboratory results from PMC11677424, “Early-Stage IM Treatment with the Host-Derived Immunostimulant CPDI-02 Increases Curative Protection of Healthy Outbred Mice Against Subcutaneous Infection with Community-Acquired Methicillin-Resistant Staphylococcus aureus USA300” (Pharmaceutics, 2024).

System: healthy male and female outbred CD-1 mice
Assay: Repeat IM dosing in healthy CD-1 mice
Format: in vivo
Experimental: Sixty CD-1 mice (thirty male and thirty female) approximately six weeks old were randomized into six cohorts (three cohorts for each gender) and then intramuscularly administered either vehicle alone (filter-sterilized 0.2 μm endotoxin-free PBS), vehicle containing CPDI-02 at 50% the observed MTD [65 mg/kg], or CPDI-02 suspended in PBS at 100% the observed MTD [130 mg/kg] twice a week over 32 days (nine doses total). Mice were weighed prior to each dose administration. On the day of administration, mice were assigned a Pain and Distress Assessment Score (Table S1). Four days after the last treatment, through terminal cardiac bleed, whole blood was collected for complete blood count (CBC) with differential (Abaxis VetScan® HM5 Hematology Analyzer, Union City, CA, USA) and blood chemistry (Abaxis VetScan® VS-2 Blood Chemistry Analyzer). In addition, injection site muscle tissues were collected, fixed in 10% formalin for 48 h, and then embedded in paraffin. Paraffin samples were cut into sections and underwent an H&E stain, then analyzed for signs of inflammation and other tissue abnormalities utilizing a Nikon Eclipse E600 (Nikon Corporation, Tokyo, Japan) at 200× magnification, and imaged using a Lumenera Infinity 2 Microscope Camera.

CSCC[C@H](NC(=O)[C@H](CC(=O)O)NC(=O)[C@H](CCCCN)NC(=O)[C@H](Cc1ccccc1)NC(=O)[C@H](CO)NC(=O)[C@@H](N)Cc1ccc(O)cc1)C(=O)N1CCC[C@H]1C(=O)N(C)[C@@H](CC(C)C)C(=O)N[C@H](C)C(=O)N[C@@H](CCCNC(=N)N)C(=O)O [CPDI-02]
inflammation around the injection site vs vehicle alone (IM 65 and 130 mg/kg, dose-dependent, greater proportion of female than male mice, H&E): increased signs of mild to severe inflammation
mortality vs vehicle alone (female mice, repeat IM 130 mg/kg, after the eighth and ninth IM injection, p = 0.0022): increased mortality
signs of distress up to 2 h after injection (male and female CD-1 mice, IM 65 or 130 mg/kg, 9 injections, any treatment group): No signs of distress
weight gain (male or female CD-1 mice, IM 65 or 130 mg/kg twice per week over 32 days, 9 injections, n = 10): no effect
effect on CBC (including platelets, platecrit) or blood chemistry vs vehicle alone (male or female mice, IM 65 or 130 mg/kg, up to 4 days after final injection (Day 32), n = 5): did not
inflammation in thymus, heart, lungs, brain, liver, spleen, kidneys, femur bone marrow, popliteal lymph nodes, Peyer's patches (repeat IM 65 or 130 mg/kg, H&E): no signs of inflammation
